From patent publication US20100273189A1, “NON SEPARATION ASSAYS WITH SELECTIVE SIGNAL INHIBITORS” (BECKMAN COULTER, INC., priority 2009, published 2010)
Several values for one entry are separate records, joined by “and”; a condition that tells them apart may be missing. Equal entries are not always repeated.

Legend:
[1] = target: T1, biotinylated HRP (Armoracia rusticana, UniProt P00433); assay: Model system for selection of SSIA (M280 btn-BSA-AK1-streptavidin particles + Btn-HRP:HRP); format: biochemical
T1 construct: purchased Roche Diagnostics, Indianapolis, Ind., USA
T1 sequence (P00433 31-338 limits assumed): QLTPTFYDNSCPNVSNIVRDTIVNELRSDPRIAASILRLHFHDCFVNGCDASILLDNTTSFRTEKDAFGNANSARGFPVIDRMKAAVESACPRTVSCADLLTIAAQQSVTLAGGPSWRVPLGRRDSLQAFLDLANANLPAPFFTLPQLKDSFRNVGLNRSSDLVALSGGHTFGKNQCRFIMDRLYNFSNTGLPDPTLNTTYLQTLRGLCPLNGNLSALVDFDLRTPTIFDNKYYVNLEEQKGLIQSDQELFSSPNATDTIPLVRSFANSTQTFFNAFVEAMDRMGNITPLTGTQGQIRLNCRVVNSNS

[2] = target: T2, HRP (Armoracia rusticana, UniProt P00433); assay: HRP model system on silica particles, with and without ascorbic acid; format: biochemical; details: 150 μM Ascorbate; for RLU: replicates
T2 construct: purchased Roche Diagnostics, Indianapolis, Ind., USA
T2 sequence (P00433 31-338 limits assumed): T1 sequence (P00433 31-338 limits assumed)
Procedure: In order to further investigate the effect of specific solid phase particles on the assays described herein, a comparison of a variety of particle types was conducted, including silica, polymethylmethacrylate (PMMA). Carboxyl modified PMMA particles (PolyAn GmbH, Berlin) were labeled with AK and biotin as described in Example 3, followed by coating with streptavidin. Silica particles were reacted with 3-aminopropylsiloxane in 1 mM acetic acid to provide an amine reactive group. The amine functional groups were reacted with AK-3 and biotin-LC-sulfoNHS, followed by coating with streptavidin.
Signal generation with Silica and PMMA particles. Assays using the HRP model system, as generally described in Example 1, were conducted on silica particles and PMMA particles, with and without ascorbic acid in the reaction mixture. The assays were run on a modified DxI instrument as described above. The assay conditions consisted of combining 45 μL BUFFER II (with or without ascorbic acid), 25 μL of particle suspension, and 15 μL of sample and incubating for 30 min. Then 100 μL of trigger solution A was added to the reaction vessel and the light intensity was recorded.

O=C1O[C@H]([C@@H](O)CO)C(O)=C1O [Ascorbic Acid, Ascorbic acid]
S/S0 ([1]; Btn-HRP 0 ng/mL vs 0, SSIA 100 μM): 1
B-HRP0 light intensity ([1]; Btn-HRP 0 ng/mL, total HRP 500 ng/mL, SSIA final 100 μM): 151 and 97
S1/S0 ([1]; Btn-HRP 1 ng/mL vs 0, SSIA 100 μM): 6.6 and 7.8
B-HRP1 light intensity ([1]; Btn-HRP 1 ng/mL, total HRP 500 ng/mL, SSIA final 100 μM): 995 and 757
S2/S0 ([1]; Btn-HRP 10 ng/mL vs 0, SSIA 100 μM): 216.2 and 171.6
B-HRP10 light intensity ([1]; Btn-HRP 10 ng/mL, total HRP 500 ng/mL, SSIA final 100 μM): 32,568 and 16,641
S3/S0 ([1]; Btn-HRP 100 ng/mL vs 0, SSIA 100 μM): 30222.2 and 38064.9
B-HRP100 light intensity ([1]; Btn-HRP 100 ng/mL, total HRP 500 ng/mL, SSIA final 100 μM): 4,553,473 and 3,692,291
S4/S0 ([1]; Btn-HRP 250 ng/mL vs 0, SSIA 100 μM): 59176.1 and 62228.3
B-HRP250 light intensity ([1]; Btn-HRP 250 ng/mL, total HRP 500 ng/mL, SSIA final 100 μM): 8,915,869 and 6,036,145
effect in the model system / utility as SSIA ([1]; SSIA 100 μM, conclusion in words): demonstrating utility as SSIA
Mean RLU ([2]; HRP 0 ng/ml): 263 RLU
S/S0 ([2]; HRP 0 ng/ml): 1.0
RLU ([2]; HRP 0 ng/ml): 256 RLU and 260 RLU and 272 RLU
Mean RLU ([2]; HRP 1 ng/ml): 6,988 RLU
S/S0 ([2]; HRP 1 ng/ml): 26.6
RLU ([2]; HRP 1 ng/ml): 6,712 RLU and 6,844 RLU and 7,408 RLU
Mean RLU ([2]; HRP 10 ng/ml): 309,873 RLU
S/S0 ([2]; HRP 10 ng/ml): 1178.2
RLU ([2]; HRP 10 ng/ml): 310,600 RLU and 278,320 RLU and 340,700 RLU
Mean RLU ([2]; HRP 100 ng/ml): 2,426,677 RLU
S/S0 ([2]; HRP 100 ng/ml): 9226.9
RLU ([2]; HRP 100 ng/ml): 2,306,036 RLU and 2,477,760 RLU and 2,496,236 RLU
Mean RLU ([2]; HRP 250 ng/ml): 2,533,168 RLU
S/S0 ([2]; HRP 250 ng/ml): 9631.8
RLU ([2]; HRP 250 ng/ml): 2,535,712 RLU and 2,523,068 RLU and 2,540,724 RLU
